Test results as given in the NIST ThermoML archive (doi:10.1016/j.jct.2006.12.017).
Numbers after ± are expanded uncertainties.

How the values were obtained:
[1] = refractive index (Na D-line) (dimensionless); conditions: 101.33 kPa, Liquid
[2] = Liquid; for mass density: 101.33 kPa

Row | SMILES | refractive index ([1]; 293.15 K) | mass density ([2]; 293.15 K) | other results
1 | ClC(Cl)C(Cl)Cl [1,1,2,2-tetrachloroethane] | 1.494 ± 0.005 | 1593 ± 3.6 kg/m3 | vapor or sublimation pressure ([2]; 417.15 K): 95.23 ± 5 kPa
2 | ClCCCl [1,2-dichloroethane] | 1.4196 ± 0.005 | 1252.9 ± 2.7 kg/m3 | vapor or sublimation pressure ([2]; 355.05 K): 95.23 ± 5 kPa
3 | Cc1ccccc1C [1,2-dimethylbenzene] |  | 880.1 ± 1.9 kg/m3 | vapor or sublimation pressure ([2]; 415.35 K): 95.23 ± 5 kPa
4 | Cc1cccc(C)c1 [1,3-dimethylbenzene] | 1.4972 ± 0.005 | 864.4 ± 1.7 kg/m3 | vapor or sublimation pressure ([2]; 410.15 K): 95.23 ± 5 kPa
5 | Cc1ccc(C)cc1 [1,4-dimethylbenzene] | 1.4858 ± 0.005 | 861 ± 1.7 kg/m3 | vapor or sublimation pressure ([2]; 409.15 K): 95.23 ± 5 kPa
6 | Cc1ccc(O)cc1 [4-methylphenol] |  |  | refractive index ([1]; 298.15 K): 1.5391 ± 0.005; vapor or sublimation pressure ([2]; 472.85 K): 95.23 ± 5 kPa
7 | ClC(Cl)=C(Cl)Cl [tetrachloroethene] | 1.505 ± 0.005 | 1625 ± 3.7 kg/m3 | vapor or sublimation pressure ([2]; 392.05 K): 95.23 ± 5 kPa
8 | ClC=C(Cl)Cl [trichloroethene] |  |  | refractive index ([1]; 298.15 K): 1.4782 ± 0.005; mass density ([2]; 298.15 K): 1464 ± 3.3 kg/m3; vapor or sublimation pressure ([2]; 358.35 K): 95.23 ± 5 kPa
